# Paper PMC9654533, “Potent Alkaline Phosphatase Inhibitors, Pyrazolo-Oxothiazolidines: Synthesis, Biological Evaluation, Molecular Docking, and Kinetic Studies” (International Journal of Molecular Sciences, 2022)
# Entries after “also recorded” stand apart in the source; their conditions may differ.
# Tests used:
# [1] = target: T1, calf intestinal alkaline phosphatase (CIAP) (Bos taurus, UniProt P19111); assay: Alkaline phosphatase inhibition assay (spectrophotometric, p-NPP substrate); format: biochemical; details: for IC50: CIAP, p-NPP substrate, pH 9.5, 37 °C, mean ± SEM
# T1 sequence (P19111 20-533): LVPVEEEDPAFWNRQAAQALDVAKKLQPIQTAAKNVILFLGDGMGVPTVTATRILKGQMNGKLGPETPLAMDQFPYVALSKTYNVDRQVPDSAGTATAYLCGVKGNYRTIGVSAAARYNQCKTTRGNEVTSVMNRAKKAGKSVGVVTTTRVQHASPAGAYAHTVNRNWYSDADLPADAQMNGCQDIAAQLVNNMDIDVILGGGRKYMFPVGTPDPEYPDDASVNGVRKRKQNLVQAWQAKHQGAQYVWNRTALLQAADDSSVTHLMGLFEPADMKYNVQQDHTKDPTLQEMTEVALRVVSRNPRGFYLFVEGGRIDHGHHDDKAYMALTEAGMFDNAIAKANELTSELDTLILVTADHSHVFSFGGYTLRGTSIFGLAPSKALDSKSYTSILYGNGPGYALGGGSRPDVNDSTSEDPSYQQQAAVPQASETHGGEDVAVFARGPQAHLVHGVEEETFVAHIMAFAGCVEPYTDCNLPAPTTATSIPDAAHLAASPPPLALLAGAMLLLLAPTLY
# Protocol: As previously mentioned, spectrophotometric analysis was used to evaluate the activity of calf intestinal alkaline phosphatase (CIAP). The reaction mixture contained 50 mM Tris-HCl buffer (5 mM MgCl2, 0.1 mM ZnCl2 pH 9.5), the 10 µL compound, and it was preincubated for 10 min by adding 5 µL of CIAP (0.025 U/mL). Then, 10 µL of a substrate (0.5 mM p-NPP (para nitrophenyl phosphate disodium salt)) was delivered to initiate the response, and therefore the assay mixture became incubated once more for 30 min at 37 °C. The change in absorbance of released p-nitrophenolate was monitored at 405 nm, using a 96-well microplate reader (Thermo Scientific Multiskan GO, USA). All the experiments were repeated three times in a triplicate manner. […] The inhibition activity was calculated according to the following equation: Inhibition (%)=[(Blank−Sample)/Blank]×100
# For calculation of the IC50 values, 6–8 serial dilutions were used and the results examined using the non-linear regression analysis of GraphPad Prism 5 [69].
# [2] = MTT cell viability assay; format: cell-based; details: human, MG-63 osteosarcoma cells, MG-63 cells
# Protocol: The human osteosarcoma MG-63 cells were acquired from the Korean Cell Line Bank (Seoul, Korea). The MG-63 cell lines were incubated in the humidified atmosphere at 37 °C containing 5% CO2 and maintained in the DMEM (Sigma, St. Louis, MO, USA), supplemented with 10% fetal bovine serum (FBS, WELGENE, Korea) and 50 unit/mL penicillin (Sigma) and 50 μg/mL streptomycin (Sigma). The medium was completely renewed every two days. The synthesized compounds were completely dissolved in dimethyl sulfoxide (DMSO) and further diluted to various concentrations (0, 0.5, 1, 2, and 4 µM). The control groups were treated with the same amount of DMSO. MTT assay technique was applied to check the toxic effect of our compounds. The MG-63 cell lines were seeded onto 96-well plates at a density of 0.4 × 10^5 cells/well with the medium for 24 h. After reaching 50% density, the cells were exposed to synthesized target compounds at the dose of 0, 0.5, 1, 2, and 4 µM for 24 h in media. […] After 24 h, the cell sustained 100 μL DMEM containing of 0.5 mg/mL 3-(4,5-dimethylthiazol-2-yl)-2,5-diphenyltetrazolium bromide (MTT) at 37 °C for 4 h. Then, the purple formazan crystals were dissolved with 100 μL of buffer (10% SDS, 0.01 N HCl). Finally, the absorbance was measured at 570 nm using a microplate reader (Thermo Fisher, Waltham, MA, USA).
# [3] = target: T1, calf intestinal alkaline phosphatase (CIAP); assay: Kinetic mechanism analysis (Lineweaver-Burk plot); format: biochemical
# Protocol: The inhibitor (7g), and substrate p-NPP concentrations were used at 0.00, 0.023, 0.045 and 0.091 µM, 10, 5, 2.5, 1.25, 0.625 and 0.3125 mM, respectively. The pre-incubation time and other conditions were the same as those mentioned in the section on the CIAP assay. Maximal initial velocities were determined from the initial linear portion of absorbances up to 10 min after the addition of enzyme per minute interval. The inhibition type of the enzyme was assayed by the Lineweaver–Burk plot of inverse velocities (1/V) versus the inverse of substrate concentration 1/[S] mM^−1. The EI dissociation constant Ki was determined by a secondary plot of 1/V versus inhibitor concentration.
# [4] = DPPH free radical scavenging assay; details: 100 µg/mL
# Protocol: Free radical scavenging activity was determined by modifying the method by DPPH assay. The assay solution composed of the 100 μL of DPPH (150 μM) and 20 μL of the sample (100 μg/mL) was introduced to gain the final volume of each well up to 200 μL with methyl alcohol. Then, it was incubated in the dark at room temperature for the following half-hour. Ascorbic acid (Vitamin C) was used as a reference inhibitor. The measurements were performed by using a microplate reader (Thermo Scientific Multiskan GO, USA) at 517 nm. Each experiment was carried out in triplicate.
# [5] = tested on: tissue-specific isozymes (PLALP, GCALP, and IALP) versus L/B/K ALPs; parameters: method as in PMID 2178806; details: cited from earlier work
# [6] = target: ALP; details: ALP inhibitors; cited from earlier work
Compound,IC50 [1] [nM],melting point [°C],other results
"CCOC(=O)C=C1SC(N2N=C(c3ccccc3)CC2c2ccc(Br)cc2)=NC1=O (stereo not drawn) [Compound 7a, Ethyl-2-(2-(5-(4-bromophenyl)-3-phenyl-4,5-dihydro-1H-pyrazol-1-yl)-4-oxothiazol-5(4H)-ylidene)acetate]",53 ± 1,242 to 244,–
"CCOC(=O)C=C1SC(N2N=C(c3ccccc3)CC2c2ccc(C)cc2)=NC1=O (stereo not drawn) [Compound 7b, Ethyl-2-(4-oxo-2-(3-phenyl-5-(p-tolyl)-4,5-dihydro-1H-pyrazol-1-yl)thiazol-5(4H)-ylidene)acetate]",2300 ± 151,226 to 228,–
"CCOC(=O)C=C1SC(N2N=C(c3ccccc3)CC2c2ccc(OC)cc2)=NC1=O (stereo not drawn) [Compound 7c, Ethyl-2-(2-(5-(4-methoxyphenyl)-3-phenyl-4,5-dihydro-1H-pyrazol-1-yl)-4-oxothiazol-5(4H)-ylidene)acetate]",198 ± 18,236 to 238,–
"CCOC(=O)C=C1SC(N2N=C(c3ccccc3)CC2c2ccc(OCc3ccccc3)c(OC)c2)=NC1=O (stereo not drawn) [Compound 7d, Ethyl-2-(2-(5-(4-(benzyloxy)-3-methoxyphenyl)-3-phenyl-4,5-dihydro-1H-pyrazol-1-yl)-4-oxothiazol-5(4H)-ylidene)acetate]",293 ± 39,202 to 204,–
"CCOC(=O)C=C1SC(N2N=C(c3ccc(OC)cc3)CC2c2ccc(C)cc2)=NC1=O (stereo not drawn) [Compound 7e, Ethyl-2-(2-(3-(4-methoxyphenyl)-5-(p-tolyl)-4,5-dihydro-1H-pyrazol-1-yl)-4-oxothiazol-5(4H)-ylidene)acetate]",228 ± 12,208 to 210,"viability at 24 h, 4 µM [2]: ≤ 70%"
"CCOC(=O)C=C1SC(N2N=C(c3ccc(OC)cc3)CC2c2ccc(Cl)cc2Cl)=NC1=O (stereo not drawn) [Compound 7f, Ethyl-2-(2-(5-(2,4-dichlorophenyl)-3-(4-methoxyphenyl)-4,5-dihydro-1H-pyrazol-1-yl)-4-oxothiazol-5(4H)-ylidene)acetate]",566 ± 48,> 260,–
"CCOC(=O)C=C1SC(N2N=C(c3ccc(OC)cc3)CC2c2ccc(OCc3ccccc3)c(OC)c2)=NC1=O (stereo not drawn) [Compound 7g, Ethyl-2-(2-(5-(4-(benzyloxy)-3-methoxyphenyl)-3-(4-methoxyphenyl)-4,5-dihydro-1H-pyrazol-1-yl)-4-oxothiazol-5(4H)-ylidene)acetate]",45 ± 4,228 to 230,"fold more active than monopotassium phosphate (IC50 ratio) ([1]; versus standard reference monopotassium phosphate): 116 fold; Inhibition Type ([3]; Lineweaver-Burk plot, substrate p-NPP): non-competitively; also recorded: Non-Competitive; Vmax ([3]; inhibitor 7g concentration 0.023 µM): 0.0014 ΔA/Min; Vmax ([3]; inhibitor 7g concentration 0.045 µM): 0.0011 ΔA/Min; Vmax ([3]; inhibitor 7g concentration 0.091 µM): 0.0009 ΔA/Min; Ki ([3]; secondary plot of slope versus inhibitor concentration, read-out: Ki (EI dissociation constant)): 93 nM; Km ([3]; substrate p-NPP, inhibitor 7g concentration 0.023 µM): 500 µM; Km ([3]; substrate p-NPP, inhibitor 7g concentration 0.045 µM): 500 µM; Km ([3]; substrate p-NPP, inhibitor 7g concentration 0.091 µM): 500 µM; DPPH free radical scavenging (inhibition) [4]: 29.7%"
"CCOC(=O)C=C1SC(N2N=C(c3ccc(OC)cc3)CC2c2ccc(Br)cc2)=NC1=O (stereo not drawn) [Compound 7h, Ethyl-2-(2-(5-(4-bromophenyl)-3-(4-methoxyphenyl)-4,5-dihydro-1H-pyrazol-1-yl)-4-oxothiazol-5(4H)-ylidene)acetate]",907 ± 41,218 to 220,–
"CCOC(=O)C=C1SC(N2N=C(c3ccc(OC)cc3)CC2c2ccc(F)cc2)=NC1=O (stereo not drawn) [Compound 7i, Ethyl-2-(2-(5-(4-fluorophenyl)-3-(4-methoxyphenyl)-4,5-dihydro-1H-pyrazol-1-yl)-4-oxothiazol-5(4H)-ylidene)acetate]",315 ± 17,210 to 212,–
"CCOC(=O)C=C1SC(N2N=C(c3ccc(OC)cc3)CC2c2ccccc2)=NC1=O (stereo not drawn) [Compound 7j, Ethyl-2-(2-(3-(4-methoxyphenyl)-5-phenyl-4,5-dihydro-1H-pyrazol-1-yl)-4-oxothiazol-5(4H)-ylidene)acetate]",434 ± 11,167 to 169,"viability at 24 h, 4 µM [2]: ≤ 70%"
"CCOC(=O)C=C1SC(N2N=C(c3ccc(OC)cc3)CC2c2ccc(OC)cc2)=NC1=O (stereo not drawn) [Compound 7k, Ethyl-2-(2-(3,5-bis(4-methoxyphenyl)-4,5-dihydro-1H-pyrazol-1-yl)-4-oxothiazol-5(4H)-ylidene)acetate]",75 ± 5,208 to 210,–
"CCOC(=O)C=C1SC(N2N=C(c3ccccc3)CC2c2ccc(Cl)cc2)=NC1=O (stereo not drawn) [Compound 7l, Ethyl-2-(2-(5-(4-chlorophenyl)-3-phenyl-4,5-dihydro-1H-pyrazol-1-yl)-4-oxothiazol-5(4H)-ylidene)acetate]",51 ± 19,251 to 253,–
"CCOC(=O)C=C1SC(N2N=C(c3ccc(OC)cc3)CC2c2ccc(Cl)cc2)=NC1=O (stereo not drawn) [Compound 7m, Ethyl-2-(2-(5-(4-chlorophenyl)-3-(4-methoxyphenyl)-4,5-dihydro-1H-pyrazol-1-yl)-4-oxothiazol-5(4H)-ylidene)acetate]",302 ± 4,220 to 222,"viability at 24 h, 4 µM [2]: ≤ 70%"
"CCOC(=O)C=C1SC(N2N=C(c3ccccc3)CC2c2ccccc2)=NC1=O (stereo not drawn) [Compound 7n, Ethyl-2-(2-(3,5-diphenyl-4,5-dihydro-1H-pyrazol-1-yl)-4-oxothiazol-5(4H)-ylidene)acetate]",2990 ± 734,216 to 218,–
N[C@@H](Cc1ccccc1)C(=O)O [L-phenylalanine],–,–,"sensitivity of inhibition of tissue-specific isozymes (PLALP, GCALP, IALP) relative to L/B/K ALPs [5]: 30 times"
"C#Cc1cccc(Nc2ncnc3cc(OCCOC)c(OCCOC)cc23)c1 [erlotinib, reference compound]",–,–,"viability at 24 h, 2 µM ([2]; first three treatments (0.5, 1, 2 µM)): > 90%"
c1ccc([C@H]2CN3CCSC3=N2)cc1 [levamisole],–,–,Ki [6]: 16000 nM
Cn1c(=O)c2[nH]cnc2n(C)c1=O [theophylline],–,–,Ki [6]: 82000 nM
